# Assay results published in patent publication US6455540B1, “Methods of use of quinolone compounds against anaerobic pathogenic bacteria” (priority 1999, dated 2002).
# Columns and labels:
# Assay in all cases: Agar dilution MIC
# [1] = tested on: Actinomyces odontolyticus; assay type: cell-based
# Actinomyces israelii = assay type: cell-based
# [2] = tested on: Anaerobiospirillum thomasii; assay type: cell-based
# [3] = tested on: Anaerobiospirillum succiniciproducens; assay type: cell-based
# Bacteroides gracilis = assay type: cell-based, Bacteroides gracilis (Campylobacter gracilis)
# Bacteroides tectum = assay type: cell-based
# Bacteroides ureolyticus = assay type: cell-based
# Bilophila wadsworthia = assay type: cell-based
# [4] = tested on: Clostridium clostridioforme; assay type: cell-based
# Clostridium dfficile = assay type: cell-based, Clostridium difficile
# Clostridium inocuum = assay type: cell-based, Clostridium innocuum
# Clostridium ramosum = assay type: cell-based
# [5] = tested on: Fusobacterium spp group 1; assay type: cell-based
# [6] = tested on: Fusobacterium spp. group 2; assay type: cell-based, Fusobacterium mortiferum, necrogenes, ulcerans; settings: Fusobacterium
# Fusobacterium russii = assay type: cell-based
# Fusobacterium varium = assay type: cell-based
# [7] = tested on: Peptostreptococcus asaccharolyticus; assay type: cell-based; settings: 11 isolates
# [8] = Clostridium, 11 isolates, read-out: Minimal Inhibitory Concentration 90% (MIC90)
# [9] = Clostridium, read-out: Minimal Inhibitory Concentration 50% (MIC50)
smiles,measurement,setting,value
"CO/N=C1\CN(c2nc3c(cc2F)c(=O)c(C(=O)O)cn3C2CC2)CC1CN (racemic) [Gemifloxacin, (R,S)-7-(3-aminomethyl-4-methoxyiminopyrrolidin-1-yl)-1-cyclopropyl-6-fluoro-4-oxo-1,4-dihydro-1,8-naphthyridine-3-carboxylic acid]",Minimal Inhibitory Concentration 90% (MIC90),[1]; 10 isolates,2 µg/mL
same,Minimal Inhibitory Concentration Range,[1]; 10 isolates,1 to 2 µg/mL
same,MIC90,"[1]; Schaalia odontolytica, 10 isolates, read-out: Minimal Inhibitory Concentration 90% (MIC90)",≤ 2 µg/mL
same,MIC50,"[1]; Schaalia odontolytica, read-out: Minimal Inhibitory Concentration 50% (MIC50)",2 µg/mL
same,Minimal Inhibitory Concentration Range,Actinomyces israelii; 6 isolates,0.5 to 2 µg/mL
same,MIC50,"Actinomyces israelii; Actinomyces israelii, read-out: Minimal Inhibitory Concentration 50% (MIC50)",1 µg/mL
same,MIC90,"Actinomyces israelii; Actinomyces israelii, stated in text only",≤ 2 µg/mL
same,Minimal Inhibitory Concentration Range,[2]; 13 isolates,0.06 to 0.25 µg/mL
same,MIC50,"[2]; Anaerobiospirillum thomasii, read-out: Minimal Inhibitory Concentration 50% (MIC50)",0.125 µg/mL
same,MIC90,"[2]; Anaerobiospirillum thomasii, 13 isolates, read-out: Minimal Inhibitory Concentration 90% (MIC90)",0.125 µg/mL
same,Minimal Inhibitory Concentration Range,[3]; 3 isolates,0.5 to 2 µg/mL
same,MIC50,"[3]; Anaerobiospirillum succiniciproducens, read-out: Minimal Inhibitory Concentration 50% (MIC50)",1 µg/mL
same,Minimal Inhibitory Concentration 90% (MIC90),Bacteroides gracilis; 11 isolates,1 µg/mL
same,MIC90,"Bacteroides gracilis; Campylobacter gracilis, 11 isolates, read-out: Minimal Inhibitory Concentration 90% (MIC90)",≤ 2 µg/mL
same,MIC50,"Bacteroides gracilis; Campylobacter gracilis, read-out: Minimal Inhibitory Concentration 50% (MIC50)",≤ 0.015 µg/mL
same,Minimal Inhibitory Concentration 90% (MIC90),Bacteroides tectum; 22 isolates,0.25 µg/mL
same,Minimal Inhibitory Concentration Range,Bacteroides tectum; 22 isolates,0.06 to 8 µg/mL
same,Minimal Inhibitory Concentration 90% (MIC90),"Bacteroides tectum; 22 isolates, listed as gemifloxacin",≤ 2 µg/mL
same,MIC50,"Bacteroides tectum; Bacteroides pyogenes, read-out: Minimal Inhibitory Concentration 50% (MIC50)",0.125 µg/mL
same,Minimal Inhibitory Concentration 90% (MIC90),Bacteroides ureolyticus; 17 isolates,2 µg/mL
same,MIC90,"Bacteroides ureolyticus; Campylobacter ureolyticus, 17 isolates, read-out: Minimal Inhibitory Concentration 90% (MIC90)",≤ 2 µg/mL
same,MIC50,"Bacteroides ureolyticus; Campylobacter ureolyticus, read-out: Minimal Inhibitory Concentration 50% (MIC50)",≤ 0.015 µg/mL
same,Minimal Inhibitory Concentration 90% (MIC90),"Bilophila wadsworthia; 16 isolates, agar supplemented with pyruvate",4 µg/mL
same,MIC90,"Bilophila wadsworthia; Bilophila wadsworthia, 16 isolates, agar supplemented with pyruvate, read-out: Minimal Inhibitory Concentration 90% (MIC90)",≥ 4 µg/mL
same,MIC50,"Bilophila wadsworthia; Bilophila wadsworthia, read-out: Minimal Inhibitory Concentration 50% (MIC50)",0.25 µg/mL
same,susceptibility to gemifloxacin,[4],relatively susceptible
same,Minimal Inhibitory Concentration 90% (MIC90),[4]; 11 isolates,1 µg/mL
same,MIC90,[4]; [8],≤ 2 µg/mL
same,MIC50,[4]; [9],0.5 µg/mL
same,susceptibility to gemifloxacin,Clostridium dfficile,often resistant
same,Minimal Inhibitory Concentration 90% (MIC90),Clostridium dfficile; 14 isolates,>8 µg/mL
same,MIC50,Clostridium dfficile; [9],2 µg/mL
same,MIC90,"Clostridium dfficile; Clostridium, read-out: Minimal Inhibitory Concentration 90% (MIC90), 14 isolates",≥ 4 µg/mL
same,susceptibility to gemifloxacin,Clostridium inocuum,relatively susceptible
same,Minimal Inhibitory Concentration 90% (MIC90),Clostridium inocuum; 11 isolates,2 µg/mL
same,MIC90,Clostridium inocuum; [8],≤ 2 µg/mL
same,MIC50,Clostridium inocuum; [9],0.25 µg/mL
same,Minimal Inhibitory Concentration Range,Clostridium ramosum; 10 isolates,0.125 to 2 µg/mL
same,MIC50,"Clostridium ramosum; Thomasclavelia ramosa, read-out: Minimal Inhibitory Concentration 50% (MIC50)",0.25 µg/mL
same,MIC90,"Clostridium ramosum; Thomasclavelia ramosa, 10 isolates, read-out: Minimal Inhibitory Concentration 90% (MIC90)",1 µg/mL
same,Minimal Inhibitory Concentration Range,[5]; 19 isolates,0.06 to 8 µg/mL
same,MIC50,"[5]; Fusobacterium, GROUP1, read-out: Minimal Inhibitory Concentration 50% (MIC50)",0.25 µg/mL
same,MIC90,"[5]; Fusobacterium, GROUP1, 19 isolates, read-out: Minimal Inhibitory Concentration 90% (MIC90)",8 µg/mL
same,MIC50,[6]; read-out: Minimal Inhibitory Concentration 50% (MIC50),4 µg/mL
same,MIC90,"[6]; 12 isolates, read-out: Minimal Inhibitory Concentration 90% (MIC90)",4 µg/mL
same,Minimal Inhibitory Concentration 90% (MIC90),Fusobacterium russii,>8 µg/mL
same,MIC50,"Fusobacterium russii; Fusobacterium russii, read-out: Minimal Inhibitory Concentration 50% (MIC50)",> 8 µg/mL
same,MIC90,"Fusobacterium russii; Fusobacterium russii, read-out: Minimal Inhibitory Concentration 90% (MIC90)",≥ 4 µg/mL
same,susceptibility pattern of strains,Fusobacterium varium,bimodal pattern
same,MIC50,"Fusobacterium varium; Fusobacterium varium, read-out: Minimal Inhibitory Concentration 50% (MIC50)",> 8 µg/mL
same,MIC90,"Fusobacterium varium; Fusobacterium varium, 17 isolates, read-out: Minimal Inhibitory Concentration 90% (MIC90)",> 8 µg/mL
same,Minimal Inhibitory Concentration Range,[7],0.125 to 0.25 µg/mL
